The values below come from the supplement of paper PMC12463676, “Small-molecule dissolution of stress granules by redox modulation benefits ALS models” (Nature Chemical Biology, 2025).

Compound in assay [1]: NC(=O)CCCCC1CCSS1 [lipoamide]
Nature of the assay: thermal stability z-score vs DMSO; higher = more thermally stabilized by treatment. The note with it: HeLa, lipoamide concentration 100 µM. As to the method:
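Cellular thermal proteome profiling in HeLa cells. Cells were treated with 100 µM lipoamide for 1 h, with or without 1 mM arsenate for a further 1 h, then heated to ten temperatures (37-66.3 °C), and soluble protein was quantified by TMT mass spectrometry relative to 0.1% DMSO controls. The thermal stability score (sum of log2 fold changes minus the abundance score) was transformed to a z-score; mean of n = 3 experiments.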

Compound in assay [2]: O=[As]([O-])(O)O.[K+] [potassium arsenate]
The assay is described as above. The conditions noted are these: HeLa; arsenate concentration 1 mM. The protocol:
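Cellular thermal proteome profiling in HeLa cells treated with 1 mM arsenate for 1 h (DMSO pretreatment), heated to ten temperatures (37-66.3 °C). Soluble protein was quantified by TMT mass spectrometry relative to DMSO controls; the thermal stability score was transformed to a z-score; mean of n = 3 experiments.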

[3] abbreviates: arsenate co-treatment: 1 mM arsenate 1 h.
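Note: each temperature applied for 3 min, abundance score taken as mean log2 fold change at the two lowest temperatures, z-score obtained by mean subtraction and division by SD.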

UniProt Q6P1L5, sequence (Q6P1L5 whole entry): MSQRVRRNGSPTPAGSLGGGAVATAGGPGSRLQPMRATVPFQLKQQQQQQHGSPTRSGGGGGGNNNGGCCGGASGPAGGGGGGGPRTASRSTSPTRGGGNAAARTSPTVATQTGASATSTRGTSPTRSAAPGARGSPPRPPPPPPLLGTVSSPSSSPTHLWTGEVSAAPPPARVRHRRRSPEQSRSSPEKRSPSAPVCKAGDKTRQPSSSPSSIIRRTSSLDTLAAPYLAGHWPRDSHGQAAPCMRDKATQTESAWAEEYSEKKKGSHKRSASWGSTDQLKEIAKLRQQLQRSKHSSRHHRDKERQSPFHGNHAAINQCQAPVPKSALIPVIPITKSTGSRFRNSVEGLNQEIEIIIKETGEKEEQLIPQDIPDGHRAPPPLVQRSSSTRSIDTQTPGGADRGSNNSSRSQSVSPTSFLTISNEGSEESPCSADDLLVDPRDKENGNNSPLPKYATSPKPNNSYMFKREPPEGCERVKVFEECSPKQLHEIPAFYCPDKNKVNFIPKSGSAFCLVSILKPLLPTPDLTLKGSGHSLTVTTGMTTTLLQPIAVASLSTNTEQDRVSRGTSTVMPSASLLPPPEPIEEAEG
UniProt Q969F9, sequence (Q969F9 whole entry): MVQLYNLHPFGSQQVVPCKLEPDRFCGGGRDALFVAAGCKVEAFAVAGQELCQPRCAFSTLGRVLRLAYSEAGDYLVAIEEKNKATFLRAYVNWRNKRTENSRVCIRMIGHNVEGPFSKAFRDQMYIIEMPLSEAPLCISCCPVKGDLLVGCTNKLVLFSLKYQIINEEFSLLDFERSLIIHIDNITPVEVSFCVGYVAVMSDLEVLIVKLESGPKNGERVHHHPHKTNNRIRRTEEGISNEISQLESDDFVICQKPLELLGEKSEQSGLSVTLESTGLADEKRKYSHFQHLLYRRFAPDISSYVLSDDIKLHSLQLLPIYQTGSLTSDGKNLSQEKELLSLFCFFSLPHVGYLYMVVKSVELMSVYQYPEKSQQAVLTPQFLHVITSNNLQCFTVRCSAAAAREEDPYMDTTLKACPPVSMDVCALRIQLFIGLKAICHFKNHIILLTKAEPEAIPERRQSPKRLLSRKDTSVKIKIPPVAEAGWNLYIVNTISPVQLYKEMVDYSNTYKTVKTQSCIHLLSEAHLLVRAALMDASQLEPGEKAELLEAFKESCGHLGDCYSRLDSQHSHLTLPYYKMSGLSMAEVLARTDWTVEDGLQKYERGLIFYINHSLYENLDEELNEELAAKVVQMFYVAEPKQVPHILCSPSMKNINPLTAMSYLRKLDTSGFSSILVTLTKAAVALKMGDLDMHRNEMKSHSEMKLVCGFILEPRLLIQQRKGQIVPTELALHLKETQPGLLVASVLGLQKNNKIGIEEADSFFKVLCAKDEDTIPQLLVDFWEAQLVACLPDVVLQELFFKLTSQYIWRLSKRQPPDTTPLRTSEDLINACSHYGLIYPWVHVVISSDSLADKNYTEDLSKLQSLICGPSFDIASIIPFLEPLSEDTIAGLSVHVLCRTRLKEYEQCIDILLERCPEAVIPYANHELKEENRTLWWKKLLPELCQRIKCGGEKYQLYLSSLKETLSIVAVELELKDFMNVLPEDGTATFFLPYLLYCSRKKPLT
UniProt O75843, sequence (O75843 whole entry): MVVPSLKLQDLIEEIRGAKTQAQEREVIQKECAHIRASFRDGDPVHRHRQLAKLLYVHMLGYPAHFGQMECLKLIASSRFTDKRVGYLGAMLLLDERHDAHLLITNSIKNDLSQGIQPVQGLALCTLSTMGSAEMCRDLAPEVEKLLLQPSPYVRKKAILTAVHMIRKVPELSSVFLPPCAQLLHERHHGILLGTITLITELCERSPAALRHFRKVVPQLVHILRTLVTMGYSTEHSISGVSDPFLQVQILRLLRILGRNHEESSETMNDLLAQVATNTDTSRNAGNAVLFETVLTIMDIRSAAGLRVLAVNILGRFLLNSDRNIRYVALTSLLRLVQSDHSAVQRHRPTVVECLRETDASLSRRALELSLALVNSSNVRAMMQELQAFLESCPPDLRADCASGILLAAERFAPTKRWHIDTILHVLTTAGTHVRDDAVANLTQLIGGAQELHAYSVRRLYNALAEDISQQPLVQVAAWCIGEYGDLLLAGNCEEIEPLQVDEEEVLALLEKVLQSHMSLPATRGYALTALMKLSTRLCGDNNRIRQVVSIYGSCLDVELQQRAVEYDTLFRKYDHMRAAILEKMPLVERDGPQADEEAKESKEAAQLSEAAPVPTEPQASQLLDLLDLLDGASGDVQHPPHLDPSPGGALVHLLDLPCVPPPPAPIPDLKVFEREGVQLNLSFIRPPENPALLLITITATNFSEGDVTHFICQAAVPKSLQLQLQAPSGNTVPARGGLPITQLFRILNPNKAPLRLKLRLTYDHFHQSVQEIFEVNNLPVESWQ
UniProt Q9H8W4, sequence (Q9H8W4 whole entry): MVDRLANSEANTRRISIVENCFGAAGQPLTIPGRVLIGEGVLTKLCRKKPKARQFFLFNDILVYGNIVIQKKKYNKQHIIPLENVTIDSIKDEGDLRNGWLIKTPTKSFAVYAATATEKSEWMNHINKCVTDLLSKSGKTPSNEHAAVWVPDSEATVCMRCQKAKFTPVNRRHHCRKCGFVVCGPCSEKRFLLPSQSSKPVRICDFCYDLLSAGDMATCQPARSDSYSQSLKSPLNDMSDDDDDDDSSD
UniProt O95551, sequence (O95551 whole entry): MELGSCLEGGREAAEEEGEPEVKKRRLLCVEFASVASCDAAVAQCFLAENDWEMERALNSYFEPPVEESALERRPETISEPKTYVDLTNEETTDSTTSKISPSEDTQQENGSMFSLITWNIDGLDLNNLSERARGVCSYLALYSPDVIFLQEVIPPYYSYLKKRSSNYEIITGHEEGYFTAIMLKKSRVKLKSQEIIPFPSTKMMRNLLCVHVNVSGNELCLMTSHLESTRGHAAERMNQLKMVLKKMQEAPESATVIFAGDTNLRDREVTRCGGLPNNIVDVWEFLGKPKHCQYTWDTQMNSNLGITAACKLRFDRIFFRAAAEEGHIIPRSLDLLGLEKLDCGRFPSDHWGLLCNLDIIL
UniProt Q13561, sequence (Q13561 whole entry): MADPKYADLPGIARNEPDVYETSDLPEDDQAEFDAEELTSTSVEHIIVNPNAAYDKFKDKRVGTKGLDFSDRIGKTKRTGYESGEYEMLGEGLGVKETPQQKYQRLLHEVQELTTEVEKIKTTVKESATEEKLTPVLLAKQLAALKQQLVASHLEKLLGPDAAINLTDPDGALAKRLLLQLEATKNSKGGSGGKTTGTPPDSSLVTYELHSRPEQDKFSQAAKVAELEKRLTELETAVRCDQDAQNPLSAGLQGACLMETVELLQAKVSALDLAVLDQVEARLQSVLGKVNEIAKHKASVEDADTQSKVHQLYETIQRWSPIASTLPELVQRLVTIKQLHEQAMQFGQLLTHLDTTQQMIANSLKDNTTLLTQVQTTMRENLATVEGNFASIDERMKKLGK
UniProt Q86UY8, sequence (Q86UY8 whole entry): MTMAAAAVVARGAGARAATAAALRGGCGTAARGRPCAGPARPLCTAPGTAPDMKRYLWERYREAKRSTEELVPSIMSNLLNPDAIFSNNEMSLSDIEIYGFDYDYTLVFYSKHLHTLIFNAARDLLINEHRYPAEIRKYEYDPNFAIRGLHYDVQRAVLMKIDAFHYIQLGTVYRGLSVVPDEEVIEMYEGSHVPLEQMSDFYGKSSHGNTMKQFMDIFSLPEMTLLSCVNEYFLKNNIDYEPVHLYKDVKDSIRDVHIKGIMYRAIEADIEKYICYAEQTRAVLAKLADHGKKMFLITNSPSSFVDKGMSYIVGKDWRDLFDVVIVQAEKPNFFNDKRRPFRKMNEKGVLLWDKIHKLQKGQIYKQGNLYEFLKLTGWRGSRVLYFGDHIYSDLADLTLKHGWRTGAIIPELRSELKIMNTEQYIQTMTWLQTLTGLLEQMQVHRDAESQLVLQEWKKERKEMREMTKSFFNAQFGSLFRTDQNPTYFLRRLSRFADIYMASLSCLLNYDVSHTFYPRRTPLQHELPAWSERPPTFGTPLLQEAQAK
UniProt P15407, sequence (P15407 whole entry): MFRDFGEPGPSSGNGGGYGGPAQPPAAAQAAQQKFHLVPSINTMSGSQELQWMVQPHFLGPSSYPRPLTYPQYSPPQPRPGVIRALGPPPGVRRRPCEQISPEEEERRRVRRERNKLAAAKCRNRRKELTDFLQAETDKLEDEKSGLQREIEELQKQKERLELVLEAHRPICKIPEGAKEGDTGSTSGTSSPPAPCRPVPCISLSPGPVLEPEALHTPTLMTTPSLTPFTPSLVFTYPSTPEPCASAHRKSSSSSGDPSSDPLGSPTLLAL
UniProt Q9Y262, sequence (Q9Y262 whole entry): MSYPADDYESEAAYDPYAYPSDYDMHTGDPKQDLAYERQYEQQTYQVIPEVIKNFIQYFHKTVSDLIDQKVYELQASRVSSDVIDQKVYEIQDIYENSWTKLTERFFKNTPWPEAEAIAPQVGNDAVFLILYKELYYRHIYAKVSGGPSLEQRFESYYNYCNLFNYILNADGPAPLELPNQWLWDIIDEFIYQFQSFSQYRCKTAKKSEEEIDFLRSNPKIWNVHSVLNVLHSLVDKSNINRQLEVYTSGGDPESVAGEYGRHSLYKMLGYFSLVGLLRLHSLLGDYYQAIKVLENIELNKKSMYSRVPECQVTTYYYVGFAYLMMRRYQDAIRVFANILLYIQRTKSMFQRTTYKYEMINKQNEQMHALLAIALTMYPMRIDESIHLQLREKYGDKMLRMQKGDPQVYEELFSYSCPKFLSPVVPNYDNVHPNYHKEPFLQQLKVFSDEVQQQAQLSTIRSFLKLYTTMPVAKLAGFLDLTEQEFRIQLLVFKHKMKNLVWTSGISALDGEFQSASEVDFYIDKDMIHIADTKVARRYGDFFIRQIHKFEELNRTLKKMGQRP
UniProt O43676, sequence (O43676 whole entry): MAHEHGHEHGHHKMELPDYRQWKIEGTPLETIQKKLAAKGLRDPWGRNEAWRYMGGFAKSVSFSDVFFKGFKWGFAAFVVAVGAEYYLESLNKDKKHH

As to OSBP2 (UniProt Q969R2), the results for the thermal stability z-score in assay [1] (setting [3]), in assay [1] (arsenate co-treatment: none) and in assay [2] were 0.192, 0.026 and -0.124, respectively.

On to PYCRL (UniProt Q53H96), for which the thermal stability z-score in assay [1] (setting [3]) was found to be 0.827; in assay [1] (arsenate co-treatment: none), 0.862; in assay [2], 0.43.

On to DCTN2 (UniProt Q13561), for which the thermal stability z-score came out at 0.321 in assay [1] (setting [3]), 0.719 in assay [1] (arsenate co-treatment: none) and 0.914 in assay [2].

Regarding TP53BP1 (UniProt Q12888), the thermal stability z-score is 1.4 in assay [1] (setting [3]), 0.891 in assay [1] (arsenate co-treatment: none) and -0.0759 in assay [2].

Turning to ALAS1 (UniProt P13196), the values for the thermal stability z-score in assay [1] (setting [3]), in assay [1] (arsenate co-treatment: none) and in assay [2] were 0.0114, -0.0767 and -0.0697, respectively.

Take LRP6 (UniProt O75581): the thermal stability z-score was -2.59 in assay [1] (setting [3]), -1.1 in assay [1] (arsenate co-treatment: none) and -0.531 in assay [2].

In the case of FUT8 (UniProt Q9BYC5), the figures for the thermal stability z-score in assay [1] (setting [3]), in assay [1] (arsenate co-treatment: none) and in assay [2] were -0.561, -0.0456 and 0.521, respectively.

Take BLOC1S1 (UniProt P78537): the thermal stability z-score in assay [1] (setting [3]) is -0.0484; in assay [1] (arsenate co-treatment: none) it was 0.202; in assay [2], -0.255.

On to UniProt E7EQ34|GOSR2, for which the values for the thermal stability z-score in assay [1] (setting [3]), in assay [1] (arsenate co-treatment: none) and in assay [2] were -0.785, -0.401 and -0.878, respectively.

Turning to NT5DC3 (UniProt Q86UY8), the thermal stability z-score in assay [1] (setting [3]) is 0.036; in assay [1] (arsenate co-treatment: none), -0.0265; in assay [2] it was -0.179.

As to ABCC1 (UniProt P33527), the figures for the thermal stability z-score in assay [1] (setting [3]), in assay [1] (arsenate co-treatment: none) and in assay [2] were 0.473, 0.0236 and -0.579, respectively.

With PTRH1 (UniProt Q86Y79), the thermal stability z-score in assay [1] (setting [3]) was 0.0851; in assay [1] (arsenate co-treatment: none) it was 0.0188; in assay [2] it was -0.214.

For the target TTI2 (UniProt Q6NXR4), the results for the thermal stability z-score in assay [1] (setting [3]), in assay [1] (arsenate co-treatment: none) and in assay [2] were -1.12, -0.63 and 0.0606, respectively.

Take FAM117B (UniProt Q6P1L5): the thermal stability z-score in assay [1] (setting [3]) is -1.14; in assay [1] (arsenate co-treatment: none), 0.461; in assay [2], 0.314.

Take CAPN2 (UniProt P17655): the values for the thermal stability z-score in assay [1] (setting [3]), in assay [1] (arsenate co-treatment: none) and in assay [2] were 0.345, 0.208 and 0.109, respectively.

With PLEKHF2 (UniProt Q9H8W4), the thermal stability z-score in assay [1] (setting [3]) was -0.1; in assay [1] (arsenate co-treatment: none) it was -0.117; in assay [2] it was -0.196.

Turning to GLRX5 (UniProt Q86SX6), the thermal stability z-score in assay [1] (setting [3]) was 1.13; in assay [1] (arsenate co-treatment: none) it was -0.225; in assay [2], -0.462.

For the target NNMT (UniProt P40261), the thermal stability z-score in assay [1] (setting [3]) is 1.79; in assay [1] (arsenate co-treatment: none), 1.62; in assay [2], 0.0978.

With HPS3 (UniProt Q969F9), the thermal stability z-score was -0.021 in assay [1] (setting [3]), 0.206 in assay [1] (arsenate co-treatment: none) and -0.255 in assay [2].

Take ERBB2 (UniProt P04626): the thermal stability z-score in assay [1] (setting [3]) stood at 0.166; in assay [1] (arsenate co-treatment: none), 0.0799; in assay [2], 0.0442.

For EIF2AK1 (UniProt Q9BQI3), the thermal stability z-score in assay [1] (setting [3]) was -0.867; in assay [1] (arsenate co-treatment: none), 0.23; in assay [2] it was 0.583.

Regarding NDUFB3 (UniProt O43676), the thermal stability z-score was 0.00119 in assay [1] (setting [3]), -0.236 in assay [1] (arsenate co-treatment: none) and 0.36 in assay [2].

Take AP1G2 (UniProt O75843): the thermal stability z-score in assay [1] (setting [3]) came to 0.17; in assay [1] (arsenate co-treatment: none) it was 0.114; in assay [2] it was 0.167.

As to EIF3L (UniProt Q9Y262), the thermal stability z-score in assay [1] (setting [3]) was 0.23; in assay [1] (arsenate co-treatment: none), 0.373; in assay [2], -0.297.

For SGMS2 (UniProt Q8NHU3), the thermal stability z-score is -1.39 in assay [1] (setting [3]), -0.337 in assay [1] (arsenate co-treatment: none) and -1.22 in assay [2].

As to CLMP (UniProt Q9H6B4), the thermal stability z-score in assay [1] (setting [3]) is 0.616; in assay [1] (arsenate co-treatment: none) it was 1.03; in assay [2] it was -0.738.

As to FOSL1 (UniProt P15407), the values for the thermal stability z-score in assay [1] (setting [3]), in assay [1] (arsenate co-treatment: none) and in assay [2] were 0.361, -0.0186 and -0.444, respectively.

RYBP (UniProt Q8N488): the thermal stability z-score was -0.607 in assay [1] (setting [3]), -0.174 in assay [1] (arsenate co-treatment: none) and -0.269 in assay [2].

With RAB27B (UniProt O00194), the thermal stability z-score in assay [1] (setting [3]) amounted to 0.463; in assay [1] (arsenate co-treatment: none) it was 0.0912; in assay [2], 0.58.

In the case of ENPEP (UniProt Q07075), the thermal stability z-score was 0.281 in assay [1] (setting [3]), 0.407 in assay [1] (arsenate co-treatment: none) and -0.0304 in assay [2].

In the case of WDFY3 (UniProt Q8IZQ1), the thermal stability z-score in assay [1] (setting [3]) is -0.0589; in assay [1] (arsenate co-treatment: none), 0.0954; in assay [2] it was -0.0794.

Take AIFM2 (UniProt Q9BRQ8): the thermal stability z-score in assay [1] (setting [3]) was 0.556; in assay [1] (arsenate co-treatment: none), -0.298; in assay [2], 0.776.

On to RHBDD2 (UniProt Q6NTF9), for which the thermal stability z-score in assay [1] (setting [3]) is -0.424; in assay [1] (arsenate co-treatment: none) it was -0.384; in assay [2] it was -0.574.

As to IFT27 (UniProt Q9BW83), the thermal stability z-score was determined as 0.856 in assay [1] (setting [3]), 0.225 in assay [1] (arsenate co-treatment: none) and 0.151 in assay [2].

Turning to RAD18 (UniProt Q9NS91), the thermal stability z-score was -0.082 in assay [1] (setting [3]), -0.0293 in assay [1] (arsenate co-treatment: none) and -0.0799 in assay [2].

Take MTERF3 (UniProt Q96E29): the results for the thermal stability z-score in assay [1] (setting [3]), in assay [1] (arsenate co-treatment: none) and in assay [2] were -0.371, 0.034 and 0.564, respectively.

For ITCH (UniProt Q96J02), the thermal stability z-score is -0.451 in assay [1] (setting [3]), -0.173 in assay [1] (arsenate co-treatment: none) and -0.386 in assay [2].

For LAMB3 (UniProt Q13751), the thermal stability z-score in assay [1] (setting [3]) is -1.92; in assay [1] (arsenate co-treatment: none) it was -1.59; in assay [2], 0.108.

For the target BRD7 (UniProt Q9NPI1), the thermal stability z-score is -0.355 in assay [1] (setting [3]), -0.169 in assay [1] (arsenate co-treatment: none) and -0.517 in assay [2].

Regarding TDP2 (UniProt O95551), the thermal stability z-score in assay [1] (setting [3]) is 0.0323; in assay [1] (arsenate co-treatment: none), -0.0541; in assay [2] it was 0.242.

On to RAB5B (UniProt P61020), for which the thermal stability z-score in assay [1] (setting [3]) was 0.278; in assay [1] (arsenate co-treatment: none), -0.614; in assay [2], -0.758.

Take DOK1 (UniProt Q99704): the thermal stability z-score in assay [1] (setting [3]) was 0.221; in assay [1] (arsenate co-treatment: none), -0.608; in assay [2], -0.45.
